From patent US12268727B2, “Bioactive polypeptides for improvements in plant protection, growth and productivity” (priority 2017, dated 2025)
Where two headings read alike, the source gives them in different places.

Assays:
[1] = test system: reactive oxygen species (ROS) production in Kiwi 'Hayward' leaf petioles; assay: ROS activity assay in kiwi leaf petioles; type: cell-based, Actinidiae deliciosa; conditions: 100 nM peptide; Kiwi 'Hayward' leaf petiole slices; 40 minutes time course
Procedure: To test the sensitivity of kiwi leaves to 22-amino acid fragments of flagellin, 1 mm slices were cut through Actinidiae deliciosa Kiwi ‘Hayward’ leaf petioles and floated in 150 μL of water in a 96-well plate, with one slice per well. […] In two independent experiments, a total of 6 kiwi leaf petiole samples were treated with each Flg22 polypeptide in Table 94. The average total RLU and standard error of the means (SEM) was calculated for each treatment. A two-tailed T-test was used to determine significance at the 90% confidence level (P<0.1) between treatments. Relative ROS production was determined for each polypeptide in comparison to total RLUs for the 100 nM Bt.4Q7Flg22 control.

[2] = test system: reactive oxygen species (ROS) production in Arabidopsis leaf tissue; assay: ROS activity assay in Arabidopsis leaf tissue; type: cell-based, Arabidopsis thaliana; conditions: 100 nM each polypeptide, negative control (water) 82896
Procedure: Elf18 and Elf26 polypeptides derived from the consensus Bacillus cereus Elongation Factor-TU (EF-Tu) protein were tested for ability to produce a ROS response in corn (hybrid 5828 YX), soy (variety Morsoy), and Arabidopsis thaliana. Polypeptides were synthesized by Genscript USA (Piscataway, N.J.) using standard solid-phase synthesis methods and provided as a lyophilized powder with greater than or equal to 70% purity. Dry powder was re-suspended to a concentration of 10 mM in ultrapure water, and then serially diluted in ultrapure water to the concentrations tested in the ROS assay in Table 98.
For the ROS assay, Arabidopsis leaves were excised from 4-week-old plants, and using a cork borer 4 mm disks were removed from the leaves. Each disc was cut in half using the edge of a razor blade, and then each disc half was floated on 150 μL of water abaxial side touching the water in a 96-well plate to rest overnight. The next day, the water was removed from each well just prior to polypeptide treatment. RLU values and relative ROS activity was reported as the average of 4 measurements.

Cercospora = Cercospora leaf blight of soybean, symptom rating in US Midwest fields; type: in vivo, Cercospora kikuchii; conditions: for early symptom development (leaf area affected): 4 weeks, V3 foliar; for symptom ranking: 8 weeks; for Percent of Disease Area covering plant, 4 weeks Post Application / Disease Area, 8 weeks Post Application: foliar at V3; for Percent of Disease Area covering plant, 4 weeks Post Application: control 30%; for Disease Area, 8 weeks Post Application: control 50%
Cercospora brassicicola = assay: White leaf spot on kale, disease score and plant weight; type: in vivo
Procedure: The infected kale plants had received no previous foliar treatments for fungal disease prevention. […] A single person scored all the plants within the trial area, and then evenly distributed the plants by disease score between the treatments in Table 64, with 6 replicated blocks of 6 plants per treatment (total=36 plants per treatment). […] Three weeks after foliar treatments, the plants were scored used the same disease severity rubric. The change in disease score was calculated for each plant, and the average change in disease score was determined per treatment. Plants were harvested four days after assessing disease severity, and yield was measured as plant weight (grams). Outlying values with weights that were either 50% below or 50% above the median weight for the trial were excluded from the dataset.

citrus trees = conditions: for Flush length (% of control) / Average Flush Length (inches): injected April 2017, measured May 2018; for more new branch growth than untreated control: orange
[3] = test system: reactive oxygen species (ROS) production in corn tissue; assay: ROS activity assay in corn tissue (luminol/horseradish peroxidase, RLU); conditions: for Change (X) in RLU of Flg22 Polypeptide Compared to Negative Control / Average RLU of Flg22 Polypeptide Treatment: corn petiole; for Average RLU of Flg22 Polypeptide Treatment: background subtracted; for Relative ROS activity normalized to Bt.4Q7Flg22: normalized to Bt.4Q7Flg22 at 100 nM
soybean = assay: Soybean pod number after foliar application; type: in vivo; conditions: 300 nM at R1 and 17 days later, counted after 31 days
Procedure: Plants were then placed under a long day conditions consisting of 16/8 light/day cycle and temperature 21-26° C. to promote early flowering and speed up progression to the reproductive (R) growth stage. When the soybean plants had reached the R1 stage of development a foliar application containing the Gm.RHPP (SEQ ID NO: 600) polypeptide at a final concentration of 300 nM and a non-ionic surfactant of 0.10% (NIS90:10; Precision Laboratories, LLC) was applied to soybean. Soybean plants were provided with the Gm.RHPP formulation and a non-ionic surfactant only control. Both the Gm.RHPP and the non-ionic surfactant control treatment were applied to 18 plants per treatment. Six equidistant sprays were provided approximately 15 cm above per each plant for complete coverage of foliage. After treatment application, the R1 soybean plants were returned to the control environmental growth room. […] Soybean pods of more than 1 mm in length were counted on the plants after 31 days from the first foliar spray treatment applications. […] A p value (p<0.05 for significance) was calculated from a paired T-test comparison between pod number from plants that received the Gm.RHPP and the non-ionic surfactant control treatment applications.

## Bt.4Q7Flg22: Flg22 polypeptide (22 amino acids) from flagellin of Bacillus thuringiensis strain 4Q7 (DRLSSGKRINSASDDAAGLAIA; listed as Bacillus thuringiensis)
[1]
  Average Total Relative Light Units (RLUs); SEM in parentheses: 47,457 RLU
[2]
  Average RLU value: 258073 RLU
Cercospora; 0.33 Fl. oz/Ac
  early symptom development (leaf area affected): 20%
  symptom ranking: comparable to the non-treated control plants
  Percent of Disease Area covering plant, 4 weeks Post Application: 20%
  Disease Area, 8 weeks Post Application: 50%
Cercospora; 4.0 Fl. oz/Ac
  early symptom development (leaf area affected): approximately 5%
  symptom ranking: considerably less apparent symptoms and damage
  Percent of Disease Area covering plant, 4 weeks Post Application: 5%
  Disease Area, 8 weeks Post Application: 35%
Cercospora brassicicola; improvement on the 1-5 scale, surfactant only control 0.6 point improvement
  Average Change in Disease Score: 1.1 point
Cercospora brassicicola; infected kale, harvested about 3.5 weeks after foliar treatment
  average plant weight: 15.1 g
Cercospora brassicicola; infected kale, Bt.4Q7Flg22 100 μM 12.0 Fl. oz/Ac, Liquid Copper Fungicide label rate 54.45 Fl oz/Ac
  Yield (Average plant weight in grams): 15.1 grams
Cercospora brassicicola; infected kale, surfactant only control 100%, Bt.4Q7Flg22 12.0 Fl. oz/Ac, copper fungicide 54.45 Fl oz/Ac
  Yield Relative to control (%): (103%)
Cercospora brassicicola; three weeks after foliar treatment
  average improvement in disease scoring over control (1-5 rubric): 0.5 points
Citrus trees; 1× or 10× rate
  phytotoxicity after trunk injection: no phytotoxicity occurred
Citrus trees; Hamlin and Vernia orange, trunk injection, two months after treatment
  average new shoot length: 3.84 inches
Citrus trees; Hamlin and Vernia orange, two months after trunk injection or foliar spray
  shoot length vs untreated control (printed as % longer): 25%
Citrus trees; Red Grapefruit, 1X, 0.138 μM
  Flush length (% of control): 135%
Citrus trees; Red Grapefruit, 1X, 0.138 μM, control 8.05
  Average Flush Length (inches): 10.83 inches
Citrus trees; Red Grapefruit, 10X, 1.38 μM
  Flush length (% of control): 113%
Citrus trees; Red Grapefruit, 10X, 1.38 μM, control 8.05
  Average Flush Length (inches): 9.13 inches
Citrus trees; Valencia Orange, 1X, 0.138 μM
  Flush length (% of control): 184%
Citrus trees; Valencia Orange, 1X, 0.138 μM, control 7.23
  Average Flush Length (inches): 13.33 inches
Citrus trees; Valencia Orange, 10X, 1.38 μM
  Flush length (% of control): 170%
Citrus trees; Valencia Orange, 10X, 1.38 μM, control 7.23
  Average Flush Length (inches): 12.29 inches
Citrus trees; 1× injection
  more new branch growth than untreated control: 85%
Citrus trees; 1× injection April 2017, measured May 2018
  more new branch growth than untreated control: 6.1 inches
[3]; Table 33, RLU relative to native Bt.4Q7Flg22 = 100
  Avg. Activity (%) Corn (5828 YX) 5 nM polypeptide: 100%
[3]; Table 35, single polypeptides and combinations, Bt.4Q7Flg22 = 100
  Avg. Activity (%) Corn (5828 YX) 5 nM polypeptide: 100%
[3]; 1.0 nM
  Change (X) in RLU of Flg22 Polypeptide Compared to Negative Control: 0.8X
  Average RLU of Flg22 Polypeptide Treatment: 6851 RLU
[3]; 5 nM
  Change (X) in RLU of Flg22 Polypeptide Compared to Negative Control: 1.1X
  Average RLU of Flg22 Polypeptide Treatment: 9389 RLU
[3]; 25 nM
  Change (X) in RLU of Flg22 Polypeptide Compared to Negative Control: 1.4X
  Average RLU of Flg22 Polypeptide Treatment: 12157 RLU
[3]; corn stalk tissue, 10 nM
  Average RLU: 6032 RLU
  relative ROS activity: 0.2 ×
  Relative ROS activity normalized to Bt.4Q7Flg22: (0.2X)
[3]; corn stalk tissue, 100 nM
  Average RLU: 33037 RLU
  Relative ROS activity normalized to Bt.4Q7Flg22: (1X*)

## GGIRAAPTGNER (Glycine max) [RHPP, Root Hair Promoting Peptide from Glycine max]
soybean
  pod count vs non-ionic surfactant control: approximately doubled pod count
